Calls of active or inactive are those of the source. The rule behind the calls is not given here.
Columns and labels:
Plasmodium falciparum [1] = assay: Antiplasmodial activity against chloroquine-sensitive erythrocytic stage Plasmodium falciparum 3D7 assessed as inhibition of parasite growth incubated for 3 days by HRP2-ELISA; format: functional, organism-based; conditions: 3D7, 72 h
Plasmodium falciparum [2] = assay: Antiplasmodial activity against chloroquine-resistant erythrocytic stage Plasmodium falciparum Dd2 assessed as inhibition of parasite growth incubated for 3 days by HRP2-ELISA; format: functional, organism-based; conditions: Dd2, 72 h
Plasmodium berghei = assay: Antiplasmodial activity against hepatic stage Plasmodium berghei infected in Huh-7 cells assessed as cell viability incubated for 1 hrs by bioluminescence assay; format: functional, organism-based; conditions: for IC50: Huh-7, 1 h
HepG2 = assay: Cytotoxicity against human HepG2 cells assessed as cell growth inhibition incubated for 1 day by neutral red assay; format: functional, cell-based; conditions: HepG2, 24 h
[3] = Selectivity index, ratio of IC50 for human HepG2 cells to IC50 for […] erythrocytic stage Plasmodium falciparum 3D7; format: toxicity; conditions: read-out: Selectivity Index

Cc1nc(CO)cc2c3ccccc3n(Cc3cn(C/C=C/c4ccc(Cl)cc4)nn3)c12
IC50 (Plasmodium falciparum [1]): > 19.9 µM | IC50 (Plasmodium falciparum [2]): > 23.6 µM | Activity (Plasmodium berghei): Active

Cc1nccc2c1[nH]c1ccc(OCCNC(=O)/C=C/c3ccc(F)cc3)cc12
IC50 (Plasmodium falciparum [1]): 0.95 µM | IC50 (Plasmodium falciparum [2]): 1.67 µM | Activity (Plasmodium berghei): Active | IC50 (HepG2): > 250 µM | selectivity ratio [3]: > 263

O=C(/C=C/c1cccc(F)c1)NCc1nccc2c1[nH]c1ccccc12
IC50 (Plasmodium falciparum [1]): > 27.8 µM | IC50 (Plasmodium falciparum [2]): > 27.8 µM

Cc1nc(CO)cc2c3ccccc3n(Cc3cn(C/C=C/c4cccc(Br)c4)nn3)c12
IC50 (Plasmodium falciparum [1]): 6.28 µM | IC50 (Plasmodium falciparum [2]): 18.4 µM | Activity (Plasmodium berghei): Active | IC50 (HepG2): > 125 µM | selectivity ratio [3]: > 19.9

COc1ccc(/C=C/Cn2cc(COc3ccc4[nH]c5c(C)nccc5c4c3)nn2)cc1
IC50 (Plasmodium falciparum [1]): 0.6 µM | IC50 (Plasmodium falciparum [2]): 1.81 µM | Activity (Plasmodium berghei): Active | IC50 (HepG2): 88 µM | selectivity ratio [3]: 147

Cc1nccc2c1[nH]c1ccc(OCCNC(=O)/C=C/c3ccc(Cl)cc3)cc12
IC50 (Plasmodium falciparum [1]): 0.36 µM | IC50 (Plasmodium falciparum [2]): 0.92 µM | Activity (Plasmodium berghei): Active | IC50 (HepG2): > 250 µM | selectivity ratio [3]: > 694

O=C(/C=C/c1cccc(F)c1)OCc1cn(Cc2nccc3c2[nH]c2ccccc23)nn1
IC50 (Plasmodium falciparum [1]): > 17.3 µM | IC50 (Plasmodium falciparum [2]): > 20.1 µM

O=C(/C=C/c1ccc(F)cc1)NCc1nccc2c1[nH]c1ccccc12
IC50 (Plasmodium falciparum [1]): > 13.9 µM | IC50 (Plasmodium falciparum [2]): > 13.9 µM

Cc1nc(CNC(=O)/C=C/c2cccc(Br)c2)cc2c1[nH]c1ccccc12
IC50 (Plasmodium falciparum [1]): 3.23 µM | IC50 (Plasmodium falciparum [2]): 1.48 µM | Activity (Plasmodium berghei): Active | IC50 (HepG2): 9.64 µM | selectivity ratio [3]: 2.98

O=C(/C=C/c1ccc(Cl)cc1)OCc1cn(Cc2nccc3c2[nH]c2ccccc23)nn1
IC50 (Plasmodium falciparum [1]): > 55.6 µM | IC50 (Plasmodium falciparum [2]): > 55.6 µM

O=C(/C=C/c1ccc(C(F)(F)F)cc1)NCc1nccc2c1[nH]c1ccccc12
IC50 (Plasmodium falciparum [1]): > 55.6 µM | IC50 (Plasmodium falciparum [2]): > 55.6 µM

Cc1nc(CNC(=O)/C=C/c2ccc(C(F)(F)F)cc2)cc2c1[nH]c1ccccc12
IC50 (Plasmodium falciparum [1]): 2.3 µM | IC50 (Plasmodium falciparum [2]): 5.97 µM | Activity (Plasmodium berghei): Active | IC50 (HepG2): 33.3 µM | selectivity ratio [3]: 14.5

Cc1nccc2c1[nH]c1ccc(OCCNC(=O)/C=C/c3ccccc3)cc12
IC50 (Plasmodium falciparum [1]): 1.55 µM | IC50 (Plasmodium falciparum [2]): 2.47 µM | Activity (Plasmodium berghei): Active | IC50 (HepG2): 12 µM | selectivity ratio [3]: 7.75

COc1ccc(/C=C/C(=O)NCCOc2ccc3[nH]c4c(C)nccc4c3c2)cc1
IC50 (Plasmodium falciparum [1]): 1.17 µM | IC50 (Plasmodium falciparum [2]): 2.86 µM | Activity (Plasmodium berghei): Active | IC50 (HepG2): > 250 µM | selectivity ratio [3]: > 214

O=C(/C=C/c1cccc(C(F)(F)F)c1)NCc1nccc2c1[nH]c1ccccc12
IC50 (Plasmodium falciparum [1]): > 27.8 µM | IC50 (Plasmodium falciparum [2]): > 27.8 µM

COc1ccc2c3ccnc(C)c3n(CCNC(=O)/C=C/c3ccc(C(F)(F)F)cc3)c2c1
IC50 (Plasmodium falciparum [1]): 0.04 µM | IC50 (Plasmodium falciparum [2]): 0.17 µM | IC50 (Plasmodium berghei): 8.4 µM | IC50 (HepG2): 5.84 µM | selectivity ratio [3]: 146

Cc1nccc2c1[nH]c1ccc(OCc3cn(C/C=C/c4cccc(F)c4)nn3)cc12
IC50 (Plasmodium falciparum [1]): 0.55 µM | IC50 (Plasmodium falciparum [2]): 2.28 µM | Activity (Plasmodium berghei): Active | IC50 (HepG2): 10.5 µM | selectivity ratio [3]: 19.1

COc1ccc(/C=C/C(=O)OCc2cn(Cc3cc4c([nH]c5ccccc54)c(C)n3)nn2)cc1
IC50 (Plasmodium falciparum [1]): > 27.8 µM | IC50 (Plasmodium falciparum [2]): > 27.8 µM | Activity (Plasmodium berghei): Active

Cc1nccc2c1[nH]c1ccc(OCCNC(=O)/C=C/c3cccc(Br)c3)cc12
IC50 (Plasmodium falciparum [1]): 0.19 µM | IC50 (Plasmodium falciparum [2]): 0.63 µM | Activity (Plasmodium berghei): Active | IC50 (HepG2): 7.57 µM | selectivity ratio [3]: 39.8

Cc1nccc2c1[nH]c1ccc(OCc3cn(C/C=C/c4ccc(Cl)cc4)nn3)cc12
IC50 (Plasmodium falciparum [1]): 0.57 µM | IC50 (Plasmodium falciparum [2]): 0.95 µM | Activity (Plasmodium berghei): Active | IC50 (HepG2): 3.95 µM | selectivity ratio [3]: 6.93

Cc1nc(Cn2cc(COC(=O)/C=C/c3cccc(F)c3)nn2)cc2c1[nH]c1ccccc12
IC50 (Plasmodium falciparum [1]): > 27.8 µM | IC50 (Plasmodium falciparum [2]): > 27.8 µM | Activity (Plasmodium berghei): Active

Cc1nc(CNC(=O)/C=C/c2cccc(C(F)(F)F)c2)cc2c1[nH]c1ccccc12
IC50 (Plasmodium falciparum [1]): 2.01 µM | IC50 (Plasmodium falciparum [2]): 7.4 µM | Activity (Plasmodium berghei): Active | IC50 (HepG2): 9.37 µM | selectivity ratio [3]: 4.66

COc1ccc2c3ccnc(C)c3n(CCNC(=O)/C=C/c3cccc(C(F)(F)F)c3)c2c1
IC50 (Plasmodium falciparum [1]): 0.06 µM | IC50 (Plasmodium falciparum [2]): 0.33 µM | IC50 (Plasmodium berghei): 1.9 µM | IC50 (HepG2): 66.3 µM | selectivity ratio [3]: 1110

Cc1nc(CNC(=O)/C=C/c2ccccc2)cc2c1[nH]c1ccccc12
IC50 (Plasmodium falciparum [1]): 5.78 µM | IC50 (Plasmodium falciparum [2]): 10.2 µM | Activity (Plasmodium berghei): Active | IC50 (HepG2): 7.05 µM | selectivity ratio [3]: 1.29

O=C(/C=C/c1ccc(Cl)cc1)NCc1nccc2c1[nH]c1ccccc12
IC50 (Plasmodium falciparum [1]): > 27.8 µM | IC50 (Plasmodium falciparum [2]): > 27.8 µM

O=C(/C=C/c1ccccc1)NCc1nccc2c1[nH]c1ccccc12
IC50 (Plasmodium falciparum [1]): > 28 µM | IC50 (Plasmodium falciparum [2]): > 55.6 µM

O=C(/C=C/c1cccc(Br)c1)NCc1nccc2c1[nH]c1ccccc12
IC50 (Plasmodium falciparum [1]): > 27.8 µM | IC50 (Plasmodium falciparum [2]): > 27.8 µM

Cc1nc(CNC(=O)/C=C/c2cccc(F)c2)cc2c1[nH]c1ccccc12
IC50 (Plasmodium falciparum [1]): 5.74 µM | IC50 (Plasmodium falciparum [2]): 12.7 µM | Activity (Plasmodium berghei): Active | IC50 (HepG2): 15.8 µM | selectivity ratio [3]: 2.76

Cc1nc(CNC(=O)/C=C/c2ccc(F)cc2)cc2c1[nH]c1ccccc12
IC50 (Plasmodium falciparum [1]): 4.13 µM | IC50 (Plasmodium falciparum [2]): 13.3 µM | Activity (Plasmodium berghei): Active | IC50 (HepG2): 12.5 µM | selectivity ratio [3]: 2.99

COc1ccc(/C=C/C(=O)NCc2nccc3c2[nH]c2ccccc23)cc1
IC50 (Plasmodium falciparum [1]): > 27.8 µM | IC50 (Plasmodium falciparum [2]): > 27.8 µM

O=C(/C=C/c1ccccc1)OCc1cn(Cc2nccc3c2[nH]c2ccccc23)nn1
IC50 (Plasmodium falciparum [1]): > 27.8 µM | IC50 (Plasmodium falciparum [2]): > 20.2 µM

Cc1nc(CO)cc2c3ccccc3n(Cc3cn(C/C=C/c4ccccc4)nn3)c12
IC50 (Plasmodium falciparum [1]): > 27.8 µM | IC50 (Plasmodium falciparum [2]): > 19.8 µM | Activity (Plasmodium berghei): Active

COc1ccc(/C=C/C(=O)OCc2cn(Cc3nccc4c3[nH]c3ccccc34)nn2)cc1
IC50 (Plasmodium falciparum [1]): > 55.6 µM | IC50 (Plasmodium falciparum [2]): 39.2 µM

Cc1nccc2c1[nH]c1ccc(OCCNC(=O)/C=C/c3cccc(F)c3)cc12
IC50 (Plasmodium falciparum [1]): 1.11 µM | IC50 (Plasmodium falciparum [2]): 1.3 µM | Activity (Plasmodium berghei): Active | IC50 (HepG2): 37.6 µM | selectivity ratio [3]: 33.9

Cc1nccc2c1[nH]c1ccc(OCc3cn(C/C=C/c4cccc(Br)c4)nn3)cc12
IC50 (Plasmodium falciparum [1]): 0.26 µM | IC50 (Plasmodium falciparum [2]): 0.73 µM | Activity (Plasmodium berghei): Active | IC50 (HepG2): 6.13 µM | selectivity ratio [3]: 23.6

Cc1nc(Cn2cc(COC(=O)/C=C/c3ccc(Cl)cc3)nn2)cc2c1[nH]c1ccccc12
IC50 (Plasmodium falciparum [1]): 21.4 µM | IC50 (Plasmodium falciparum [2]): > 27.8 µM | Activity (Plasmodium berghei): Active | IC50 (HepG2): 70.5 µM | selectivity ratio [3]: 3.29

Cc1nc(CNC(=O)/C=C/c2ccc(Cl)cc2)cc2c1[nH]c1ccccc12
IC50 (Plasmodium falciparum [1]): 2.92 µM | IC50 (Plasmodium falciparum [2]): 8.38 µM | Activity (Plasmodium berghei): Active | IC50 (HepG2): 11.3 µM | selectivity ratio [3]: 3.88

Cc1nc(Cn2cc(COC(=O)/C=C/c3cccc(Br)c3)nn2)cc2c1[nH]c1ccccc12
IC50 (Plasmodium falciparum [1]): 16.4 µM | IC50 (Plasmodium falciparum [2]): 11.1 µM | Activity (Plasmodium berghei): Active | IC50 (HepG2): 110 µM | selectivity ratio [3]: 6.71

O=C(/C=C/c1cccc(Br)c1)OCc1cn(Cc2nccc3c2[nH]c2ccccc23)nn1
IC50 (Plasmodium falciparum [1]): > 13.2 µM | IC50 (Plasmodium falciparum [2]): > 19.1 µM

COc1ccc(/C=C/C(=O)NCc2cc3c([nH]c4ccccc43)c(C)n2)cc1
IC50 (Plasmodium falciparum [1]): 6.5 µM | IC50 (Plasmodium falciparum [2]): 10.7 µM | Activity (Plasmodium berghei): Active | IC50 (HepG2): 10.4 µM | selectivity ratio [3]: 1.6

COc1ccc(/C=C/Cn2cc(Cn3c4ccccc4c4cc(CO)nc(C)c43)nn2)cc1
IC50 (Plasmodium falciparum [1]): 18.2 µM | IC50 (Plasmodium falciparum [2]): > 16.9 µM | Activity (Plasmodium berghei): Active

Cc1nccc2c1[nH]c1ccc(OCCNC(=O)/C=C/c3cccc(C(F)(F)F)c3)cc12
IC50 (Plasmodium falciparum [1]): 0.12 µM | IC50 (Plasmodium falciparum [2]): 0.32 µM | Activity (Plasmodium berghei): Active | IC50 (HepG2): 6.14 µM | selectivity ratio [3]: 51.2

Cc1nccc2c1[nH]c1ccc(OCCNC(=O)/C=C/c3ccc(C(F)(F)F)cc3)cc12
IC50 (Plasmodium falciparum [1]): 0.12 µM | IC50 (Plasmodium falciparum [2]): 0.35 µM | Activity (Plasmodium berghei): Active | IC50 (HepG2): 3.59 µM | selectivity ratio [3]: 29.9

Cc1nccc2c1[nH]c1ccc(OCc3cn(C/C=C/c4ccccc4)nn3)cc12
IC50 (Plasmodium falciparum [1]): 0.61 µM | IC50 (Plasmodium falciparum [2]): 2.12 µM | Activity (Plasmodium berghei): Active | IC50 (HepG2): 10.1 µM | selectivity ratio [3]: 16.6

COc1ccc2c(c1)[nH]c1c(C)nccc12 [HARMINE]
IC50 (Plasmodium falciparum [2]): > 27.7 µM | IC50 (HepG2): > 250 µM | selectivity ratio [3]: 30

Cc1nc(Cn2cc(COC(=O)/C=C/c3ccccc3)nn2)cc2c1[nH]c1ccccc12
IC50 (Plasmodium falciparum [1]): > 20 µM | IC50 (Plasmodium falciparum [2]): > 27.8 µM | Activity (Plasmodium berghei): Active

Source: ChEMBL document CHEMBL4828716, “Further investigation of harmicines as novel antiplasmodial agents: Synthesis, structure-activity relationship and insight into the mechanism of action” (Eur J Med Chem, 2021)
